Results: patent publication EP3375430A1, “FRAGRANCE COMPOSITIONS” (Takasago International Corporation, priority 2017, dated 2018)

What was measured:
[1] = Amount of fragrance ingredients retained on paper blotter after evaporation (ethanol extraction, GC-MS); assay type: physicochemical
Experimental: A fragrance (hereafter fragrance TAK, the formulation of which is shown in table 1) was formulated in a typical Eau de Toilette (EdT1) or in fragrance compositions according to the invention (compositions C1 to C4), as shown in table 2. The amount of individual fragrance ingredients retained on paper substrate (blotter) after set time periods was assessed by the following method.
100µL samples of either EdT1 or compositions C1 to C4 were applied to 4.5cm long standard paper blotters with a microsyringe. Three replicate blotters were prepared for each extraction time. After the appropriate evaporation time each of the 3 blotters was transferred to a 30mL glass bottle. 3mL of ethanol and 50µL of a 1% solution of methyl decanoate in ethanol as an internal standard were added. The bottle was sealed and placed on a roller bed to extract the blotter for 1 hour. A sample of the extracting solution was transferred to a vial which was sealed and analysed by gas chromatography (GC 6890) with a Mass Spectrometer detector (MS 5973) using the method described below. The results of the three replicate measurements were averaged. At exact times the same extraction was repeated on the remaining blotters which were stored on a warm surface at 32°C open to the air to allow evaporation. The gas chromatography conditions were as given below.
• Initial Temp: 50°C • Initial Time: 2 min • Rate: 10°C /min • Final Temp: 280°C • Final Time: 5 min • Run Time: 30 min
• Column: HP-5MS 30m * 0.25mm * 0.25µm • Gas: Helium • Constant Pressure 18.55 psi
• Split mode Ratio 40:1 • Inlet Temp: 250°C
• MS 5973 • Mass range: 35 to 350 • Threshold: 100 • Mass Quad: 150°C • Mass Source: 230°C
To simplify the results the average amount of each fragrance ingredient from the 3 samples measured at time zero was set at 100% and all other measurements were then related to that value so tables 3 to 6 show decreasing amounts of fragrance ingredients as a percentage of the initial amount.
The method of example 1 was repeated using a commercial fragrance (hereafter fragrance COM1, the formulation of which is given in table 7) formulated in a typical Eau de Toilette (EdT2) or in fragrance compositions according to the invention (compositions C5 and C6), as shown in table 8.

[2] = Headspace concentration of fragrance ingredients over blotter (thermal desorption GC-MS); assay type: physicochemical; conditions: fragrance TAK; after 1 hour; both control EdT1 and composition C1; Figure 2
Experimental: The headspace concentration of individual ingredients of fragrance TAK, as formulated in either a conventional EdT (EdT1) or a fragrance composition of the invention (C1), was assessed by the method described below.
A 10 cm length was cut from a standard perfumers' blotter. A sample of 100µL volume was applied to the upper surface of the blotter with a syringe. The blotter was placed on a hot plate thermostatted at 32°C and left to equilibrate for 5 minutes. Two desorption tubes (6cm length 4mm internal diameter) each containing 2 cm length of Tenax TA adsorbent were fitted to the glass part of a headspace apparatus shown in figure 9. The glass part was fitted over the blotter, a metering pump was connected to one of the desorption tubes and air was drawn through the apparatus flushing the headspace over the blotter at a rate of 17mL/min. Sampling continued for about 16.5 minutes until 280mL of air had been extracted. Then the outlet desorption tube was analysed by gas chromatography as described below. The glass part was removed from the blotter which was left on the hotplate until the next sampling time when two fresh desorption tubes were fitted and the extraction procedure repeated for a further 280mL of extracted headspace.
• Initial Temp: 50°C • Initial Time: 5 min • Rate: 3°C /min • Final Temp: 250°C • Final Time: 20 min • Run Time: 91.67 min
• Column: HP-5MS 30m * 0.25mm * 0.25µm • Gas: Helium • Constant pressure 12.675 psi
• Initial Temp: -30°C • Equilibration Time: 0.05 min • Initial Time: 0.00 min • Rate 12°C / min • End Temp: 260°C • Hold Time: 10 min
Temperature program • Initial Temp: 35°C • Delay Time: 0.30 min • Initial Time: 0.00 min • Rate: 30°C / min • End Temp: 250°C • Hold Time: 5.00 min
TDU Settings • Transfer Temp: 250°C • Transfer Temp Mode: Fixed • Desorption Mode: splitless • Sample mode: Retain tube - standby cooling • Standby Temp: 50°C
Detector MS • MS 5973 • Mass range: 35 to 350 • Threshold: 150 • Mass Quad: 150°C • Mass Source: 230°C
Following the procedure of example 2, the headspace concentration of representative ingredients of fragrance COM1 was determined. COM1 was dosed at 5 and 20 % either in control EdT3 and EdT4 or in compositions of the invention C7 and C8, as shown in table 10.
The headspace concentration of individual ingredients of fragrance TAK (see Table 1), as formulated in either a conventional EdT (EdT1) or fragrance compositions of the invention (C14, C15), was assessed by the method described in example 2.

CCCCCCOC(C)=O [Hexyl acetate, Hexyl Acetate]
amount of fragrance ingredient retained on blotter (percentage of the initial amount) ([1]; Table 3, fragrance TAK in C1, 15 min, 32°C): 41% | amount of fragrance ingredient retained on blotter (percentage of the initial amount) ([1]; Table 3, fragrance TAK in C1, 60 min, 32°C): 5% | amount of fragrance ingredient retained on blotter (percentage of the initial amount) ([1]; Table 3, fragrance TAK in C1, 120 min, 32°C): 2% | amount of fragrance ingredient retained on blotter (percentage of the initial amount) ([1]; Table 3, fragrance TAK in C1, 240 min, 32°C): 2% | amount of fragrance ingredient retained on blotter (percentage of the initial amount) ([1]; Table 3, fragrance TAK in C1, 480 min, 32°C): 2% | amount of fragrance ingredient retained on blotter (percentage of the initial amount) ([1]; Table 3, fragrance TAK in EdT1, 15 min, 32°C): 13% | amount of fragrance ingredient retained on blotter (percentage of the initial amount) ([1]; Table 3, fragrance TAK in EdT1, 60 min, 32°C): 2% | amount of fragrance ingredient retained on blotter (percentage of the initial amount) ([1]; Table 3, fragrance TAK in EdT1, 120 min, 32°C): 2% | amount of fragrance ingredient retained on blotter (percentage of the initial amount) ([1]; Table 3, fragrance TAK in EdT1, 240 min, 32°C): 1% | amount of fragrance ingredient retained on blotter (percentage of the initial amount) ([1]; Table 3, fragrance TAK in EdT1, 480 min, 32°C): <1% | amount of fragrance ingredient retained on blotter (percentage of the initial amount) ([1]; Table 3, fragrance TAK in EdT1 or C1, T0, set at 100% (normalisation)): 100% | amount of fragrance ingredient retained on blotter (percentage of the initial amount) ([1]; Table 4, fragrance TAK in C2, 15 min, 32°C): 54% | amount of fragrance ingredient retained on blotter (percentage of the initial amount) ([1]; Table 4, fragrance TAK in C2, 480 min, 32°C): <1% | amount of fragrance ingredient retained on blotter (percentage of the initial amount) ([1]; Table 4, fragrance TAK in EdT1, 15 min, 32°C): 15% | amount of fragrance ingredient retained on blotter (percentage of the initial amount) ([1]; Table 4, fragrance TAK in EdT1, 480 min, 32°C): 6% | amount of fragrance ingredient retained on blotter (percentage of the initial amount) ([1]; Table 4, fragrance TAK in EdT1 or C2, T0, set at 100% (normalisation)): 100% | amount of fragrance ingredient retained on blotter (percentage of the initial amount) ([1]; Table 5, fragrance TAK in C3, 15 min, 32°C): 43% | amount of fragrance ingredient retained on blotter (percentage of the initial amount) ([1]; Table 5, fragrance TAK in C3, 60 min, 32°C): 5% | amount of fragrance ingredient retained on blotter (percentage of the initial amount) ([1]; Table 5, fragrance TAK in C3, 120 min, 32°C): 2% | amount of fragrance ingredient retained on blotter (percentage of the initial amount) ([1]; Table 5, fragrance TAK in C3, 240 min, 32°C): 2% | amount of fragrance ingredient retained on blotter (percentage of the initial amount) ([1]; Table 5, fragrance TAK in C3, 480 min, 32°C): 2% | amount of fragrance ingredient retained on blotter (percentage of the initial amount) ([1]; Table 5, fragrance TAK in C3, 1440 min, 32°C): 2% | amount of fragrance ingredient retained on blotter (percentage of the initial amount) ([1]; Table 5, fragrance TAK in EdT1, 15 min, 32°C): 13% | amount of fragrance ingredient retained on blotter (percentage of the initial amount) ([1]; Table 5, fragrance TAK in EdT1, 60 min, 32°C): 2% | amount of fragrance ingredient retained on blotter (percentage of the initial amount) ([1]; Table 5, fragrance TAK in EdT1, 120 min, 32°C): 2% | amount of fragrance ingredient retained on blotter (percentage of the initial amount) ([1]; Table 5, fragrance TAK in EdT1, 240 min, 32°C): 1% | amount of fragrance ingredient retained on blotter (percentage of the initial amount) ([1]; Table 5, fragrance TAK in EdT1, 480 min, 32°C): <1% | amount of fragrance ingredient retained on blotter (percentage of the initial amount) ([1]; Table 5, fragrance TAK in EdT1, 1440 min, 32°C): <1% | amount of fragrance ingredient retained on blotter (percentage of the initial amount) ([1]; Table 5, fragrance TAK in EdT1 or C3, T0, set at 100% (normalisation)): 100% | amount of fragrance ingredient retained on blotter (percentage of the initial amount) ([1]; Table 6, fragrance TAK in C4, 15 min, 32°C): 41% | amount of fragrance ingredient retained on blotter (percentage of the initial amount) ([1]; Table 6, fragrance TAK in C4, 60 min, 32°C): 5% | amount of fragrance ingredient retained on blotter (percentage of the initial amount) ([1]; Table 6, fragrance TAK in C4, 120 min, 32°C): 5% | amount of fragrance ingredient retained on blotter (percentage of the initial amount) ([1]; Table 6, fragrance TAK in C4, 240 min, 32°C): 4% | amount of fragrance ingredient retained on blotter (percentage of the initial amount) ([1]; Table 6, fragrance TAK in C4, 480 min, 32°C): 3% | amount of fragrance ingredient retained on blotter (percentage of the initial amount) ([1]; Table 6, fragrance TAK in EdT1, 15 min, 32°C): 13% | amount of fragrance ingredient retained on blotter (percentage of the initial amount) ([1]; Table 6, fragrance TAK in EdT1, 60 min, 32°C): 2% | amount of fragrance ingredient retained on blotter (percentage of the initial amount) ([1]; Table 6, fragrance TAK in EdT1, 120 min, 32°C): 2% | amount of fragrance ingredient retained on blotter (percentage of the initial amount) ([1]; Table 6, fragrance TAK in EdT1, 240 min, 32°C): 1% | amount of fragrance ingredient retained on blotter (percentage of the initial amount) ([1]; Table 6, fragrance TAK in EdT1, 480 min, 32°C): <1% | amount of fragrance ingredient retained on blotter (percentage of the initial amount) ([1]; Table 6, fragrance TAK in EdT1 or C4, T0, set at 100% (normalisation)): 100% | headspace presence of ingredient [2]: lost
